Reference: patent US20060025390A1, “Treatment of hormone allergy and related symptoms and disorders” (priority 2004, published 2006)

Assays:
[1] = system: serum IgM anti-17-α-hydroxyprogesterone antibodies; test: ELISA binding of IgM 17-α-hydroxyprogesterone antibodies to different hormones in solid phase; set-up: species or system human; settings: for IgM binding (optical density): hormone in solid phase, 405 nm; for IgM % reaction: relative to 17-α-hydroxyprogesterone = 100
Experimental: (§1) The ELISA inhibition method was used to determine specificity and cross-reactivity between different hormones and to ensure the degree of human IgG, IgM and IgE estrogen or progesterone binding to estrogen or progesterone in solid phase. […] 100 μl of sera from three different patients with high IgG, IgM or IgE antibodies against 17-α-hydroxyprogesterone was added to all wells. After shaking and incubation for 1 hr at room temperature, addition of enzyme labeled anti-human IgG, IgM or IgE, repeat of incubation, washing, and addition of substrate, color development was measured at 405 nm. Results were calculated as percentage of anti-17-α-hydroxyprogesterone binding to 17-α-hydroxyprogesterone and other hormones. Also, anti-estrogen binding to estrogen and other hormones in solid phase by progesterone in liquid phase was performed and calculated in a similar manner.
(§2) Human sera containing 17-α-hydroxyprogesterone IgG-, IgM- and IgE-binding antibodies were reacted against progesterone, estrogen, hydrocortisone and cholesterol. In comparison to 100% binding of anti-17-α-hydroxyprogesterone-binding to 17-α-hydroxyprogesterone, the IgG anti-17-α-hydroxyprogesterone-binding to progesterone, estrogen, hydrocortisone and cholesterol was 69-77%, 25-30%, 39-53%, and less than 10% respectively (Table 4). The % binding of serum IgM and IgE anti-17-α-hydroxyprogesterone to 17-1-hydroxyprogesterone, progesterone, estrogen, hydrocortisone and cholesterol was similar to the binding of IgG. This binding of anti-17-α-hydroxyprogesterone to progesterone was the highest, followed by hydrocortisone, then estrogen, to almost no binding with cholesterol. Similar to this, human sera with IgG, IgM and IgE binding antibodies against estrogen were reacted with progesterone, 17-α-hydroxyprogesterone, hydrocortisone and cholesterol, in the presence of estrogen.

[2] = system: serum IgG anti-17-α-hydroxyprogesterone antibodies; test: ELISA binding of IgG 17-α-hydroxyprogesterone antibodies to different hormones in solid phase; set-up: species or system human; settings: for IgG binding (optical density): hormone in solid phase, 405 nm; for IgG % reaction: relative to 17-α-hydroxyprogesterone = 100
Experimental: as §1, §2

women with acute asthma = test: Symptom relief in women with acute asthma after intradermal progesterone (0 to 10 scale); assay type: in vivo, human
Experimental: To test this hypothesis, 142 women with acute asthma were asked to evaluate the severity of their symptoms using an eleven point scale. Ten was assigned to the most severe symptoms, while 0 was assigned to an absence of symptoms. Immediately after assessing their symptoms on this scale, patents were administered 0.5 mg of progesterone by intradermal injection.
Approximately 15 to 30 seconds after the injection was administered, each patient was asked if their symptoms were worse, better, or unchanged. Each patient was also asked to rate their present symptoms on the same 0 to 10 scale.
Of the 142 patients tested 129 (91%) positively responded to the treatment. Using the random effects calculations described in Example 2, this correlates to a less than 0.1% chance that the results are random. Thus the results may be considered highly significant.
Hormone samples may be prepared in any way suitable for the intended administration route. For administration through intradermal injection, samples may be prepared as they were in the studies of Examples 2 and 3. Specifically, the progesterone was formulated from commercially available injectable progesterone. Each ml of the final formulation contained […] of progesterone and 10% benzyl alcohol as a preservative in sesame oil. 0.1 ml was administered per patient intradermally. Estrogen samples were similarly prepared.

[3] = system: serum IgE anti-estrogen antibodies; test: ELISA binding of IgE estrogen antibodies to different hormones in solid phase; set-up: species or system human; settings: for IgE binding (optical density): hormone in solid phase, 405 nm; for IgE % reaction: relative to estrogen = 100
Experimental: as §1, §2

[4] = system: serum IgG anti-estrogen antibodies; test: ELISA binding of IgG estrogen antibodies to different hormones in solid phase; set-up: species or system human; settings: for IgG binding (optical density): hormone in solid phase, 405 nm; for IgG % reaction: relative to estrogen = 100
Experimental: as §1, §2

[5] = 0.5 mg intradermal, acute asthma
[6] = of 142 women with acute asthma, 0.5 mg intradermal, 15 to 30 seconds after injection

- IgM binding (optical density) ([1]; sample 1): 0.8
- IgM % reaction ([1]; sample 1): −61%
- IgM binding (optical density) ([1]; sample 2): 0.79
- IgM % reaction ([1]; sample 2): −77%
- IgM binding (optical density) ([1]; sample 3): 0.72
- IgM % reaction ([1]; sample 3): −78%
- IgG anti-17-α-hydroxyprogesterone binding ([2]; in comparison to 100% binding to 17-α-hydroxyprogesterone, over three sera): 69-77%
- IgG binding (optical density) ([2]; sample 1): 1.1
- IgG % reaction ([2]; sample 1): −69%
- IgG binding (optical density) ([2]; sample 2): 0.73
- IgG % reaction ([2]; sample 2): −77%
- IgG binding (optical density) ([2]; sample 3): 0.49
- IgG % reaction ([2]; sample 3): −72%
- IgE binding (optical density) ([3]; sample 1): 0.21
- IgE % reaction ([3]; sample 1): −26%
- IgE binding (optical density) ([3]; sample 2): 0.53
- IgE % reaction ([3]; sample 2): −35%
- IgE binding (optical density) ([3]; sample 3): 0.62
- IgE % reaction ([3]; sample 3): −39%
- IgG binding (optical density) ([4]; sample 1): 0.35
- IgG % reaction ([4]; sample 1): −29%
- IgG binding (optical density) ([4]; sample 2): 0.48
- IgG % reaction ([4]; sample 2): −27%
- IgG binding (optical density) ([4]; sample 3): 0.32
- IgG % reaction ([4]; sample 3): −35%
Structure (SMILES): CC(=O)[C@H]1CC[C@H]2[C@@H]3CCC4=CC(=O)CC[C@]4(C)[C@H]3CC[C@]12C [Progesterone, progesterone]
- average symptomatic relief, patients who reported some response (women with acute asthma; 0 to 10 scale): 5 points
- average symptomatic relief, all patients (women with acute asthma; 0 to 10 scale, responding and not responding patients): 3.4 points
- average reduction in symptoms relative to maximum individual patient score (women with acute asthma; [5]): 62%
- patients reporting 100% relief of asthma symptoms (%) (women with acute asthma; [5]): 28%
- patients reporting 100% relief of asthma symptoms (number) (women with acute asthma; [5]): 40
- patients who positively responded to the treatment (%) (women with acute asthma; [6]): 91%
- patients who positively responded to the treatment (number) (women with acute asthma; [6]): 129
